In patent US20230399341A1, “7-PHENYL SUBSTITUTED 2-AMINOQUINAZOLINE INHIBITORS OF HPK1” (MERCK SHARP & DOHME LLC, priority 2020, published 2023):

What follows are compounds tested against T1, Human HPK1, catalytic domain (Homo sapiens, UniProt Q92918) (assay: HPK1-SLP76 TR-FRET Assay). Settings: 75 pM HPK1, ATP 10 uM, SLP76 10 nM, 30 min pre-incubation, 60 min reaction.
T1 sequence (Q92918 1-346): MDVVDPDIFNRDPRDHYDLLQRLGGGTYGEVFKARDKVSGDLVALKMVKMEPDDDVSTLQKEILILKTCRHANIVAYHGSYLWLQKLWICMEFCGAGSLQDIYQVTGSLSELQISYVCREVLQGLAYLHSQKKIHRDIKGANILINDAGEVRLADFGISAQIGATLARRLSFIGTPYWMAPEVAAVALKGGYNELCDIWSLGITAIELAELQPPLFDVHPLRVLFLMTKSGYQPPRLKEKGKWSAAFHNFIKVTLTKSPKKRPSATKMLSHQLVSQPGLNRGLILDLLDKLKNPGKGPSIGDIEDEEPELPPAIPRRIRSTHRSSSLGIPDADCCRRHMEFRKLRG
Format: biochemical

| SMILES | IC50 |
| --- | --- |
| CNC(=O)C(C)(C)c1ccc(Nc2ncc3c(N)c(F)c(-c4cnc5c(c4C)NCCO5)cc3n2)cc1 [Compound 2-187, 2-(4-{[5-amino-6-fluoro-7-(8-methyl-2,3-dihydro-1H-pyrido[2,3-b][1,4]oxazin-7-yl)quinazolin-2-yl]amino}phenyl)-N,2-dimethylpropanamide] | 0.0812 nM |
| CNC(=O)C1CCc2cc(Nc3ncc4c(N)c(F)c(-c5cnc6c(c5C)NCCO6)cc4n3)ccc21 (centres unmarked) [Compound 2-188, 5-{[5-amino-6-fluoro-7-(8-methyl-2,3-dihydro-1H-pyrido[2,3-b][1,4]oxazin-7-yl)quinazolin-2-yl]amino}-N-methyl-2,3-dihydro-1H-indene-1-carboxamide] | 0.0806 nM |
| COc1cc2c(cc1Nc1ncc3ccc(N4CCCC4=O)cc3n1)CN(C)CC2 [Compound 3-1, 1-{2-[(6-methoxy-2-methyl-1,2,3,4-tetrahydroisoquinolin-7-yl)amino]quinazolin-7-yl}-pyrrolidin-2-one] | 241 nM |
| COc1cc2c(cc1Nc1ncc3ccc(N4C(=O)OC[C@@H]4C)cc3n1)CN(C)CC2 [Compound 3-2, (S)-3-{2-[(6-methoxy-2-methyl-1,2,3,4-tetrahydroisoquinolin-7-yl)amino]quinazolin-7-yl}-4-methyl-1,3-oxazolidin-2-one] | 1.79 nM |
| COc1cc2c(cc1Nc1ncc3ccc(N4CC5(CCNCC5)OC4=O)cc3n1)CN(C)CC2 [Compound 3-5, 3-{2-[(6-methoxy-2-methyl-1,2,3,4-tetrahydroisoquinolin-7-yl)amino]quinazolin-7-yl}-1-oxa-3,8-diazaspiro[4.5]decan-2-one] | 205 nM |
| COc1cc2c(cc1Nc1ncc3ccc(N4C(=O)OCC4(C)C)cc3n1)CN(C)CC2 [Compound 3-6, 3-{2-[(6-methoxy-2-methyl-1,2,3,4-tetrahydroisoquinolin-7-yl)amino]quinazolin-7-yl}-4,4-dimethyl-1,3-oxazolidin-2-one] | 45.2 nM |
| COc1cc2c(cc1Nc1ncc3ccc(N4C(=O)OC[C@H]4C(C)C)cc3n1)CN(C)CC2 [Compound 3-10, (4R)-3-{2-[(6-methoxy-2-meth-yl-1,2,3,4-tetrahydroisoquinolin-7-yl)amino]quinazolin-7-yl}-4-(propan-2-yl)-1,3-oxazolidin-2-one] | 107 nM |
| COc1cc2c(cc1Nc1ncc3c(N)cc(N4C(=O)OC[C@@H]4C)cc3n1)CN(C)CC2 [Compound 3-17, (S)-3-{5-amino-2-[(6-methoxy-2-methyl-1,2,3,4-tetrahydroiso-quinolin-7-yl)amino]quinazolin-7-yl}-4-methyl-1,3-oxazolidin-2-one] | 0.0757 nM |
| COc1cc2c(cc1Nc1ncc3ccc(NCC4=NS(=O)(=O)c5cc(C)ccc5N4)cc3n1)CN(C)CC2 [Compound 3-18, 3-[({2-[(6-methoxy-2-methyl-1,2,3,4-tetrahydroisoquinolin-7-yl)amino]quinazolin-7-yl}-amino)methyl]-7-methyl-1lambda~6~,2,4-benzothia-diazine-1,1(4H)-dione] | 204 nM |
| COc1cc2c(cc1Nc1ncc3ccc(Nc4ccc5c(c4)C(=O)NCC5)cc3n1)CN(C)CC2 [Compound 3-21, 7-({2-[(6-methoxy-2-methyl-1,2,3,4-tetrahydroisoquinolin-7-yl)amino]quinazolin-7-yl}-amino)-3,4-dihydroisoquinolin-1(2H)-one] | 30.4 nM |
| COc1cc2c(cc1Nc1ncc3ccc(N[C@H]4CCN(C(=O)C5CC5)C4)cc3n1)CN(C)CC2 [Compound 3-22, cyclopropyl[(3S)-3-({2-[(6-meth-oxy-2-methyl-1,2,3,4-tetrahydro-isoquinolin-7-yl)amino]quinaz-olin-7-yl}amino)pyrrolidin-1-yl]-methanone] | 535 nM |
| COc1cc2c(cc1Nc1ncc3ccc(Nc4ccc5c(c4)C(=O)N(C)C5)cc3n1)CN(C)CC2 [Compound 3-23, 6-({2-[(6-methoxy-2-methyl-1,2,3,4-tetrahydroisoquinolin-7-yl)amino]quinazolin-7-yl}-amino)-2-methyl-2,3-dihydro-1H-isoindol-1-one] | 46.3 nM |
| COc1cc2c(cc1Nc1ncc3ccc(Nc4cc(S(C)(=O)=O)ccc4C)cc3n1)CN(C)CC2 [Compound 3-24, N~2~-(6-methoxy-2-methyl-1,2,3,4-tetrahydroisoquinolin-7-yl)-N~7~-[2-methyl-5-(meth-ylsulfonyl)phenyl]quinazoline-2,7-diamine] | 2.6 nM |
| COc1cc2c(cc1Nc1ncc3ccc(NCc4ccc5c(c4)S(=O)(=O)N=C(C)N5)cc3n1)CN(C)CC2 [Compound 3-25, 7-[({2-[(6-methoxy-2-methyl-1,2,3,4-tetrahydroisoquinolin-7-yl)amino]quinazolin-7-yl}-amino)methyl]-3-methyl-1lambda~6~,2,4-benzothia-diazine-1,1(4H)-dione] | 46.8 nM |
| COc1cc2c(cc1Nc1ncc3ccc(Nc4cccc(C#N)n4)cc3n1)CN(C)CC2 [Compound 3-27, 6-({2-[(6-methoxy-2-methyl-1,2,3,4-tetrahydroisoquinolin-7-yl)amino]quinazolin-7-yl}-amino)-pyridine-2-carbonitrile] | 22.5 nM |
| COc1cc2c(cc1Nc1ncc3ccc(NCc4ccc5c(c4)C(=O)NC5)cc3n1)CN(C)CC2 [Compound 3-28, 6-[({2-[(6-methoxy-2-methyl-1,2,3,4-tetrahydroisoquinolin-7-yl)amino]quinazolin-7-yl}-amino)methyl]-2,3-dihydro-1H-isoindol-1-one] | 51.8 nM |
| COc1cc2c(cc1Nc1ncc3ccc(Nc4cccc(CO)n4)cc3n1)CN(C)CC2 [Compound 3-29, [6-({2-[(6-methoxy-2-methyl-1,2,3,4-tetrahydroisoquinolin-7-yl)amino]quinazolin-7-yl}-amino)pyridin-2-yl]methanol] | 20.5 nM |
| COc1cc2c(cc1Nc1ncc3ccc(Nc4cccc(CO)c4)cc3n1)CN(C)CC2 [Compound 3-31, [3-({2-[(6-methoxy-2-methyl-1,2,3,4-tetrahydroisoquinolin-7-yl)amino]quinazolin-7-yl}-amino)phenyl]methanol] | 29.4 nM |
| COc1cc2c(cc1Nc1ncc3ccc(Nc4ccc5c(c4)N(C(C)=O)CC5)cc3n1)CN(C)CC2 [Compound 3-32, 1-[6-({2-[(6-methoxy-2-methyl-1,2,3,4-tetrahydroisoquinolin-7-yl)amino]quinazolin-7-yl}-amino)-2,3-dihydro-1H-indol-1-yl]ethan-1-one] | 57.1 nM |
| COc1cc2c(cc1Nc1ncc3ccc(Nc4cccc(S(C)(=O)=O)c4)cc3n1)CN(C)CC2 [Compound 3-33, N~2~-(6-methoxy-2-methyl-1,2,3,4-tetrahydroisoquinolin-7-yl)-N~7~-[3-(methylsulfon-yl)phenyl]quinazoline-2,7-diamine] | 18.4 nM |
| COc1cc2c(cc1Nc1ncc3ccc(Nc4cccc(C(=O)N(C)C)c4)cc3n1)CN(C)CC2 [Compound 3-34, 3-({2-[(6-methoxy-2-methyl-1,2,3,4-tetrahydroisoquinolin-7-yl)amino]quinazolin-7-yl}-amino)-N,N-dimethylbenzamide] | 81.5 nM |
| COc1cc2c(cc1Nc1ncc3ccc(Nc4nccc(CO)n4)cc3n1)CN(C)CC2 [Compound 3-35, [2-({2-[(6-methoxy-2-methyl-1,2,3,4-tetrahydroisoquinolin-7-yl)amino]quinazolin-7-yl}-amino)pyrimidin-4-yl]methanol] | 1.67 nM |
| COc1cc2c(cc1Nc1ncc3ccc(Nc4cc(S(C)(=O)=O)ccc4F)cc3n1)CN(C)CC2 [Compound 3-36, N~7~-[2-fluoro-5-(methyl-sulfonyl)phenyl]-N~2~-(6-methoxy-2-methyl-1,2,3,4-tetra-hydroisoquinolin-7-yl)quinaz-oline-2,7-diamine] | 4.17 nM |
| COc1cc2c(cc1Nc1ncc3ccc(NC4CCN(C(C)=O)CC4)cc3n1)CN(C)CC2 [Compound 3-38, 1-[4-({2-[(6-methoxy-2-methyl-1,2,3,4-tetrahydroisoquinolin-7-yl)amino]quinazolin-7-yl}-amino)piperidin-1-yl]ethan-1-one] | 369 nM |
| COc1cc2c(cc1Nc1ncc3ccc(Nc4cc(CO)ccn4)cc3n1)CN(C)CC2 [Compound 3-40, [2-({2-[(6-methoxy-2-methyl-1,2,3,4-tetrahydroisoquinolin-7-yl)amino]quinazolin-7-yl}-amino)pyridin-4-yl]methanol] | 0.889 nM |
| COc1cc2c(cc1Nc1ncc3ccc(Nc4cc(C(N)=O)ccn4)cc3n1)CN(C)CC2 [Compound 3-41, 2-({2-[(6-methoxy-2-methyl-1,2,3,4-tetrahydroisoquinolin-7-yl)amino]quinazolin-7-yl}-amino)pyridine-4-carboxamide] | 10 nM |
| COc1cc2c(cc1Nc1ncc3ccc(Nc4cc(S(C)(=O)=O)c(C)cc4C)cc3n1)CN(C)CC2 [Compound 3-42, N~7~-[2,4-dimethyl-5-(methyl-sulfonyl)phenyl]-N~2~-(6-methoxy-2-methyl-1,2,3,4-tetra-hydroisoquinolin-7-yl)quinaz-oline-2,7-diamine] | 3.17 nM |
| COc1cc2c(cc1Nc1ncc3ccc(Nc4cccc(N5CCN(C)C5=O)c4)cc3n1)CN(C)CC2 [Compound 3-43, 1-[3-({2-[(6-methoxy-2-methyl-1,2,3,4-tetrahydroisoquinolin-7-yl)amino]quinazolin-7-yl}-amino)phenyl]-3-methylimidaz-olidin-2-one] | 68.5 nM |
| COc1cc2c(cc1Nc1ncc3ccc(Nc4ccc(C)c(S(N)(=O)=O)c4)cc3n1)CN(C)CC2 [Compound 3-44, 5-({2-[(6-methoxy-2-methyl-1,2,3,4-tetrahydroisoquinolin-7-yl)amino]quinazolin-7-yl}-amino)-2-methylbenzene-1-sulfonamide] | 13 nM |
